Counter-ions that a name gives are not always drawn.

Assay [1] has as its target T1, 5HT3 receptor (Rattus norvegicus, UniProt P35563).
T1 sequence (P35563 24-483): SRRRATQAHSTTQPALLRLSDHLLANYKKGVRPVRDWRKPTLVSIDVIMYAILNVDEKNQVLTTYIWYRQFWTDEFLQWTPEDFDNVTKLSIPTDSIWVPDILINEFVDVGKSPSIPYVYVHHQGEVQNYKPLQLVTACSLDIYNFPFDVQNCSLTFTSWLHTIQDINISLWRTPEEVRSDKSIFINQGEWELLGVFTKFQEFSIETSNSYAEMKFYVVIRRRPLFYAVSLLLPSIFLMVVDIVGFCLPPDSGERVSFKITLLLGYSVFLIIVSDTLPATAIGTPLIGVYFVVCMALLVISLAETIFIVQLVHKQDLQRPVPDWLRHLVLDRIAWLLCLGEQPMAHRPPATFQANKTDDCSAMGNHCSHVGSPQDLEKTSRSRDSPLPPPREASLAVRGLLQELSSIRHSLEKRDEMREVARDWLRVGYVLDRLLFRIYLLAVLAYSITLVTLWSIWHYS
Nature of the assay: Inhibition of the binding of ^3 H-GR65630 to 5-HT3 sites in rat entorhinal cortex. Also noted: labelled in the entorhinal cortex of the rat brain; from tissue; host or cells: rat entorhinal cortex. The text has this:
(§1) The following Table II reports the data obtained in this in vitro test for a representative group of compounds of the invention in comparison with the known reference compounds MDL 72222 and Metoclopramide.
(§2) 5-HT3 binding affinity ^(a) for rat entorhinal cortex
(§3) ^(a) [^3 HGR 65630 labelled 5HT3 sites.
(§4) The tested compounds were able to interact with 5-HT3 -serotonin receptors labelled in the entorhinal cortex of the rat brain with ^3 H-GR 65630.

Assay [2] addresses T1, 5HT3 receptor. Nature of the assay: Inhibition of the von Bezold-Jarisch chemoreflex evoked by 5-HT (20 μg/kg i.v.) in the anesthetised rat (in vivo 5HT3 antagonist activity). Also noted: chemoreflex evoked by 5-HT in the anesthetised rat; from tissue; host or cells: anaesthetised rat in vivo (own knowledge: 5-HT3 receptors on cardiac vagal afferents). The note with it: anesthetized rat; for % Inhibition: mean ± S.E.M.; for ED50: iv, limits in parentheses on the following line. On the procedure:
Pharmacol. 326, 36-44 (1984).
The following Table I reports the in vivo 5HT3 antagonist activity data obtained in this test for the representative compounds of the invention 2,3,3a,4-tetrahydro-2-(1-azabicyclo [2.2.2]oct-3-yl)-8-chloro-1H-imidazo[5,1-c][1,4]benzoxazin-1-one hydrochloride (internal code FCE 26781);
Inhibition of the Bezold-Jarisch reflex elicited by 5-HT (20
μg/kg i.v.) by i.v. FCE compounds in the anesthetized rat.
Values are mean ± S.E.M. from N animals

Assay [3] has as its target T1, 5HT3 receptor. Nature of the assay: 5-HT3 binding affinity in rat entorhinal cortex using ^3 H-BRL 43694 (Granisetron). Further details: labelled in the entorhinal cortex of the rat brain; from tissue; host or cells: rat entorhinal cortex. On the procedure: The affinity for serotonin 5-HT3 receptor was also assessed for instance in rat entorhinal cortex using the selective radioligand ^3 H-[…] as described by Nelson and Thomas (1989).
Nelson D. R. and Thomas D. R., [^3 H]-BRL 43694 (Granisetron), a specific ligand for 5-HT3 binding sites in rat brain cortical membranes Biochem. Pharmac. 38, 1693-1695, 1989.
The following Table III summarizes the data obtained in this in vitro test for a representative group of compounds of the invention in comparison with the known reference compounds MDL 72222 and Metoclopramide.
5-HT3 binding affinity ^b) for rat entorhinal cortex.
^(b) ^3 […] labelled 5HT3 sites

A further assay has as its target 5-HT3 receptor. Nature of the assay: Inhibition of the binding of ^3 H-GR65630 to 5-HT3 sites in rat entorhinal cortex. To be noted: ^3 H-GR 65630, rat entorhinal cortex, low (affinity site), two-site fit.
Excerpt: as §1, §2, §3, §4

The mark [4] stands for this setting: ^3 H-GR 65630, rat entorhinal cortex, high (affinity site), only Ki where one-site fit, read-out: Ki high.
[5] abbreviates: ^3 H-BRL 43694 labelled 5HT3 sites, rat entorhinal cortex, read-out: Ki.

The Ki is a measure of affinity in units of concentration, obtained from inhibition or displacement. As a reminder, the % Inhibition is the share of the control response that was lost under treatment. A lower % Inhibition goes with little suppression. For orientation: ED50 means the dose at which the effect has come halfway, by size or by number of responders. Consider `Cl.O=C1N(C2CN3CCC2CC3)CC2COc3ccc(Cl)cc3N12` (stereo not shown) [FCE 26781, 2,3,3a,4-tetrahydro-2-(1-azabicyclo [2.2.2]oct-3-yl)-8-chloro-1H-imidazo[5,1-c][1,4]benzoxazin-1-one hydrochloride], for which the Ki was found to be 2.61 nM on 5HT3 receptor [1], 13 nM at 5HT3 receptor [3] and 1900 nM at 5-HT3 receptor. In addition, the “% Inhibition” value on 5HT3 receptor [2] (50 μg/kg i.v., N=6) is on record as 29.50 ± 6.34%; on 5HT3 receptor [2] (150 μg/kg i.v., N=6) it was 50.38 ± 5.45%; on 5HT3 receptor [2] (450 μg/kg i.v., N=6) it was 90.38 ± 2.80%. At 5HT3 receptor [2], the ED50 is 0.112 mg/kg.

In the case of `CN1C2CCC1CC(N1CC3COc4ccc(Cl)cc4N3C1=O)C2` (stereo not drawn) [FCE 26783, (endo)-2,3,3a,4-tetrahydro-8-chloro-2-(8-methyl-8-azabicyclo [3.2.1]oct-3-yl)-1H-imidazo[5,1-c][1,4]benzoxazin-1-one hydrochloride], the Ki was found to be 400 nM at 5HT3 receptor [1] (setting [4]) and 30 nM at 5HT3 receptor [3]. For the same compound, on 5HT3 receptor [2] (100 μg/kg i.v., N=3-7), the “% Inhibition” value is recorded as 30.9 ± 6.0%.

On to `CN1C2CCCC1CC(N1CC3COc4ccc(Cl)cc4N3C1=O)C2` (stereo not drawn) [FCE 26785, (endo)-2,3,3a,4-tetrahydro-8-chloro-2-(9-methyl-9-azabicyclo[3.3.1]non-3-yl)-1H-imidazo[5,1-c][1,4]benzoxazin-1-one hydrochloride], for which the Ki on 5HT3 receptor [1] amounted to 9.79 nM; at 5HT3 receptor [3] (setting [5]) it was 310 nM; on 5-HT3 receptor, 600 nM.

As for `CN1C2CCC1CC(N1CC3COc4ccccc4N3C1=O)C2` (stereo not drawn) [FCE 26878, (endo)-2,3,3a,4-tetrahydro-2-(8-methyl-8-azabicyclo[3.2.1]oct-3-yl)-1H-imidazo[5,1-c][1,4]benzoxazin-1-one, hydrochloride], the Ki at 5HT3 receptor [1] was 70 nM; at 5HT3 receptor [3], 9 nM. Besides, the “% Inhibition” value at 5HT3 receptor [2] (100 μg/kg i.v., N=3-7) turned out to be 85.8 ± 1.7%. At 5HT3 receptor [2], the ED50 stood at 0.0138 mg/kg.

`Cl.O=C1N(C2CN3CCC2CC3)CC2COc3ccccc3N12` (stereo not shown) [FCE 26962, 2,3,3a,4-tetrahydro-2-(1-azabicyclo[2.2.2]oct-3-yl)-1H-imidazo [5,1-c][1,4]benzoxazin-1-one hydrochloride]: the results for the Ki on 5HT3 receptor [1], at 5HT3 receptor [3] and at 5-HT3 receptor were 9.74 nM, 0.4 nM and 14000 nM, respectively. On 5HT3 receptor [2] (100 μg/kg i.v., N=3-7), the “% Inhibition” value turned out to be 86.4 ± 1.8%. The ED50 at 5HT3 receptor [2] was found to be 0.0263 mg/kg.

Turning to `CN1C2CCCC1CC(N1CC3COc4ccccc4N3C1=O)C2` (stereo not drawn) [FCE 26963, (endo)-2,3,3a,4-tetrahydro-2-(9-methyl-9-azabicyclo[3.3.1]non-3-yl)-1H-imidazo[5,1-c][1,4]benzoxazin-1-one hydrochloride], the Ki turned out to be 151 nM on 5HT3 receptor [1] (setting [4]), 170 nM at 5HT3 receptor [3] (setting [5]) and 72000 nM on 5-HT3 receptor. The “% Inhibition” value at 5HT3 receptor [2] (100 μg/kg i.v., N=3-7) worked out at 27.1 ± 10.7%.

`CN1C2CCC1CC(OC(=O)c1cc(Cl)cc(Cl)c1)C2` (stereo not shown) [MDL 72222, reference compound] yielded a Ki on 5HT3 receptor [3] of 23 nM.

`CCN(CC)CCNC(=O)c1cc(Cl)c(N)cc1OC` [Metoclopramide, reference compound] had a Ki on 5HT3 receptor [3] of 490 nM.

The record behind these values is patent US5364854A, “Derivatives of substituted imidazo benzoxazin-1-one and process for their preparation” (Farmitalia Carlo Erba S.r.l., priority 1992, dated 1994).
